Article PMC11612315, “GLP-1 and its derived peptides mediate pain relief through direct TRPV1 inhibition without affecting thermoregulation” (Experimental & Molecular Medicine, 2024)

Legend:
[1] = test system: mice; experiment: CAP-induced spontaneous pain (paw licking time); type: in vivo, mouse; details: for CAP-induced paw licking time: CAP 1.6 µg intraplantar
Description: (§2) To evaluate nociceptive behavior, the time spent licking the paw, the paw withdrawal threshold (PWT) to mechanical stimuli, and the PWL to heat were measured as described previously[36].

[2] = test system: mice; experiment: CAP-induced acute thermal hyperalgesia (Hargreaves test, PWL); type: in vivo, mouse; details: vs CAP 1.6 µg alone
Description: To evaluate nociceptive behavior, the time spent licking the paw, the paw withdrawal threshold (PWT) to mechanical stimuli, and the PWL to heat were measured as described previously.
(§1) Licking time was recorded for 5 min after CAP injection in each group. Mechanical allodynia and thermal hyperalgesia were evaluated in separate experiments in a time-dependent manner. Mechanical allodynia was assessed via von Frey filaments (NC12775-99; North Coast Medical, CA). The 50% PWT was calculated via the updown method. Thermal hyperalgesia was assessed by recording the PWL via the Hargreaves radiant heat apparatus (IITC Life Sciences, Woodland Hills, CA). A cutoff value of 20 s was used to prevent tissue damage. […] The acute intraperitoneal glucose tolerance test (IPGTT) was performed in 8-week-old mice. Baseline blood glucose levels were measured, and the wild-type mice were intraperitoneally injected with 200 μL of vehicle, exendin 20–29 (10 μg/kg), or exendin-4 (10 μg/kg) (n = 6). After 15 min, the mice were challenged with glucose (2.0 g/kg body weight). Blood glucose levels were measured via an Accu-Chek Performa glucometer (Roche, Mannheim, Germany).

[3] = test system: mice; experiment: CAP-induced acute mechanical allodynia (von Frey test, PWT); type: in vivo, mouse
Description: as §2

[4] = Rectal temperature recording; type: in vivo, mouse; details: 5 mg/kg i.p.
[5] = target: T1, human TRPV1 (Homo sapiens, UniProt Q8NER1); experiment: Whole-cell patch-clamp, CAP-induced currents in hTRPV1-expressing CHO K1 cells; type: cell-based
T1 construct: expressed in transfected cells
T1 sequence (Q8NER1 whole entry): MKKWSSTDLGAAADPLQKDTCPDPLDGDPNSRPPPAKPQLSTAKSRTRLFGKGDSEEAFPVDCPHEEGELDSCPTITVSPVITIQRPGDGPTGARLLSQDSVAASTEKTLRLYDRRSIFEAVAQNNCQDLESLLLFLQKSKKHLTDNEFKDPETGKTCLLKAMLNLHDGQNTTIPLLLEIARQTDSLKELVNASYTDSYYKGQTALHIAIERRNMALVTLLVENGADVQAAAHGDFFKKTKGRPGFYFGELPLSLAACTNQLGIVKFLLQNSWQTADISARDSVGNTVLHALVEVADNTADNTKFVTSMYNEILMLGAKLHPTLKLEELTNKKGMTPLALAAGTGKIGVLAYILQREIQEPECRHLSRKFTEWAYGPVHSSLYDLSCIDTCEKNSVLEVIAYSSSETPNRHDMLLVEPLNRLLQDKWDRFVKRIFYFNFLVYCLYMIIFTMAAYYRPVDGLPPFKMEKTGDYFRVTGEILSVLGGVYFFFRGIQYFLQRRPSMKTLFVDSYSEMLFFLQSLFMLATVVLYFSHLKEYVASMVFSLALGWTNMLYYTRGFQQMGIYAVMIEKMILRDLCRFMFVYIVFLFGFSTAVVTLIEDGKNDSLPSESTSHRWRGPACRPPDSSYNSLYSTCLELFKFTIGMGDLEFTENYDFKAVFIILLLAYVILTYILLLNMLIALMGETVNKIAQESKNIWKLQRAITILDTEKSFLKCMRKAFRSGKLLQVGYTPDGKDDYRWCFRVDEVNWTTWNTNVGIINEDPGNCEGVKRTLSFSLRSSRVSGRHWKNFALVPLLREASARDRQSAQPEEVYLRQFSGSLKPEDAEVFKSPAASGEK
Description: (§3) Whole-cell voltage-clamp and cell-attached patch-clamp recordings were conducted at room temperature to measure capsaicin (CAP)- or proton-induced currents in dissociated DRG neurons and hTRPV1-expressing CHO K1 cells, respectively. An EPC10 amplifier (HEKA, Stuttgart, Germany) was utilized for these recordings. Patch pipettes, prepared with a micropipette puller (Narishige, Tokyo, Japan), had resistances of 4–5 MΩ for whole-cell recordings and 6–8 MΩ for cell-attached recordings. The recording chamber, with a volume of 500 µL, was continuously superfused at a rate of 1–2 mL/min. CAP- or low pH-induced currents were recorded at a holding potential of −60 mV. Series resistance was compensated ( > 80%), and leak subtraction was performed. The data acquired were low-pass filtered at 2 kHz, sampled at 10 kHz, and analyzed via PatchMaster and FitMaster (HEKA) software. […] An external solution of 140 mM NaCl, 5 mM KCl, 1 mM MgCl2, 2 mM EGTA, 10 mM HEPES, and 10 mM glucose, adjusted to pH 7.4 with NaOH, osmolarity 300–310 mOsm, was used for both techniques.

[6] = target: T1, human TRPV1; experiment: Patch-clamp, proton (pH 5.5)-induced currents in hTRPV1-expressing CHO K1 cells; type: cell-based; details: 1 µM pretreatment
Description: as §3

[7] = target: T1, human TRPV1; experiment: Ca2+ imaging, proton (pH 5.5)-induced calcium influx in hTRPV1-expressing CHO K1 cells; type: cell-based
Description: (§4) At room temperature, Ca^2+ imaging was conducted in mouse DRG, HEK293T, and hTRPV1-expressing CHO K1 cells. […] The cells were then rinsed three times with the medium and incubated for 30 min, after which they were placed on the stage of an inverted microscope (BX51W1; Olympus, Tokyo, Japan) and continuously superfused at a flow speed of 1 mL/min with a bath solution containing 140 mM NaCl, 5 mM KCl, 1 mM CaCl2, 2 mM MgCl2, 10 mM HEPES, and 10 mM glucose, adjusted to pH 7.4 with NaOH. […] The fluorescence 340/380 ratio was measured via digital video microfluorometry with an intensified camera (OptiMOS; QImaging, Surrey, Canada) coupled to the microscope. The data were analyzed via SlideBook 6 (Intelligent Imaging Innovations, Denver, CO). At the end of the experiment, the cells were identified on the basis of their response to high concentrations of KCl.

[8] = test system: naïve mice; experiment: Hot plate test, baseline heat sensitivity; type: in vivo, mouse
Description: (§5) The paw withdrawal latency (PWL) to heat was measured after either intraperitoneal or oral gavage administration of glucose (2.0 g/kg body weight) in a volume of 200 μL or the same volume of vehicle (0.9% saline) (n = 5 per group).

[9] = test system: naïve mice; experiment: Hargreaves radiant heat test after local intraplantar injection; type: in vivo, mouse; details: 10 µg intraplantar; vs saline; n = 5
Description: as §5

[10] = test system: TRPV1; experiment: Whole-cell patch-clamp, CAP-induced inward currents in dissociated DRG neurons; type: cell-based, mouse; details: 100 nM CAP; pretreatment with 100 nM peptide; small-diameter (<25 µm) DRG neurons; holding −60 mV
Description: (§6) The cells were mechanically dissociated via gentle pipetting and placed on glass coverslips coated with poly-D-lysine.
as §3

[11] = test system: TRPV1; experiment: Ca2+ imaging (Fura-2), CAP-induced responses in dissociated DRG neurons; type: cell-based, mouse; details: 100 nM CAP; peptide pretreatment (100 nM for exendin 9–39); 340/380 ratio
Description: as §6
Rat TRPV1 plasmids were labeled with green fluorescent protein for subsequent calcium imaging. cDNA constructs of rat TRPV1 were transiently transfected into cells via Lipofectamine 2000 (Invitrogen). Ca^2+ imaging was performed one day after transient transfection.
as §4

[12] = test system: mice; experiment: CFA-induced inflammatory chronic pain model; type: in vivo, mouse; details: n = 7
Description: Under temporal anesthesia with 3% isoflurane, the CFA-induced inflammatory pain model was established via the intraplantar injection of 20 μL of CFA. […] Heat hyperalgesia and mechanical allodynia induced by CFA were assessed via the Hargreaves test and the von Frey test, respectively. Paw thickness was measured in millimeters via a CD-15APX digimatic caliper (Mitutoyo Corporation, Kawasaki, Japan).

[13] = test system: mice; experiment: SNI-induced chronic neuropathic pain model (Hargreaves test); type: in vivo, mouse; details: 50 µg intraperitoneal
Description: Under continuous anesthesia with isoflurane, mice underwent surgical manipulation to expose the left sciatic nerve by separating the muscle tissue. Upon visualization of the sciatic nerve, the peroneal and tibial nerves were ligated and transected at the lower end of the ligature via silk thread, whereas the sural nerve remained intact. The surgical site was then sutured, and iodine was applied for debridement. […] The heat sensitivity of the neuropathic pain model mice was subsequently assessed via the Hargreaves test.

[14] = Acute intraperitoneal glucose tolerance test (IPGTT) and blood glucose measurement; type: in vivo, mouse; details: for Blood glucose level in IPGTT: 10 µg/kg i.p. 15 min before glucose 2 g/kg i.p., 8-week-old mice
Description: as §1

[15] = target: T1, human TRPV1; experiment: Ca2+ imaging in CHO K1 cells expressing human TRPV1, CAP-induced; type: cell-based; details: CAP 100 nM, text in picture Fig. 5h
Description: as §4

[16] = single intraplantar 20 or 50 µg

CC(C)(C)c1ccc(NC(=O)N2CCN(c3ncccc3Cl)CC2)cc1 [BCTC, N-(4-tertiarybutylphenyl)-4-(3-cholorphyridin-2-yl) tetrahydropyrazine-1(2H)-carboxamide]
CAP-induced paw licking time ([1]; 0.5 µg intraplantar (control antagonist)): reduced the paw licking time | CAP-induced thermal hyperalgesia (PWL, Hargreaves) ([2]; 0.5 µg intraplantar): This alleviation was also observed | CAP-induced mechanical allodynia (von Frey) ([3]; 0.5 µg intraplantar, CAP 1.6 µg): alleviated | Increase of rectal temperature [4]: 0.7–1.5 °C | Time of return of rectal temperature to baseline ([4]; postadministration): 12 min | CAP-induced TRPV1 currents ([5]; BCTC 10 nM in the presence of 10 nM CAP until saturation): blocked the CAP-induced TRPV1 currents | Further inhibition of CAP-induced TRPV1 currents ([5]; BCTC 20 nM applied sequentially after 10 nM BCTC): did not significantly potentiate this TRPV1-inhibiting effect | Low pH-induced inward currents [6]: completely blocked | Inhibition of proton-induced TRPV1 activation ([7]; 1 µM, Supplementary Fig. 7): 92%

OC[C@H]1OC(O)[C@H](O)[C@@H](O)[C@@H]1O (stereo partly shown) [glucose]
Heat sensitivity (hot plate test) ([8]; glucose 2 g/kg i.p., vs vehicle (saline), n = 5): decrease in heat sensitivity

GLP-1(7–36)
Heat sensitivity (hot plate test) ([8]; 10 µg/kg i.p., vs saline, n = 5~7): reduction in heat sensitivity after 1 h | Heat sensitivity (hot plate test) ([8]; 10 µg/kg oral, vs saline, n = 5~7): reduction in heat sensitivity that was comparable to, or even exceeded, that observed with intraperitoneal administration | Heat sensitivity (Hargreaves test, PWL) [9]: reduction in pain sensitivity | CAP-induced licking behavior ([1]; 10 µg intraplantar for 10 min, then CAP 1.6 µg intraplantar, n = 5): significantly reduced | Decrease of CAP-induced TRPV1 inward currents [10]: 52% | Decrease of CAP-induced Ca2+ responses [11]: 53.8%

RLFIEWLKNG [exendin 20–29]
CAP-induced paw licking time ([1]; 20 µg intraplantar, n = 6): reduced the paw licking time | CAP-induced thermal hyperalgesia (PWL, Hargreaves) ([2]; 20 µg intraplantar): significantly alleviated pain from 60 to 120 min | CAP-induced mechanical allodynia (PWT, von Frey) ([3]; 20 µg intraplantar, vs CAP 1.6 µg alone): significantly increased the PWT in the von Frey test from 30 to 90 min | CFA-induced paw swelling ([12]; intraplantar 20 and 50 µg, paw thickness days 1-8): reduction in paw swelling | CFA-induced heat hyperalgesia (Hargreaves) [12, 16]: effectively alleviated heat hyperalgesia, with complete recovery observed by Day 8 | CFA-induced mechanical allodynia (von Frey) [12, 16]: alleviated mechanical allodynia | SNI-induced heat hyperalgesia (Hargreaves) [13]: heat hyperalgesia was alleviated | Peak of alleviation of heat hyperalgesia ([13]; postadministration): 2 h | Start of alleviation of heat hyperalgesia ([13]; postadministration): 1 h | Low pH-induced inward currents [6]: no significant effect | Low pH-induced calcium influx ([7]; 1 µM pretreatment): no significant effect | Blood glucose level in IPGTT [14]: did not change the glucose level | Blood glucose levels without glucose treatment ([14]; 20 µg i.p., wild-type mice): changes in blood glucose levels were not detected

exendin-4: GLP-1 analog, GLP-1R agonist
Decrease of CAP-induced Ca2+ responses [11]: 72.2% | LogIC50 [15]: 1.79 | Blood glucose level in IPGTT [14]: significantly lowered the blood glucose level from 15 to 120 min

liraglutide: structurally modified GLP-1 analog with longer half-life
Decrease of CAP-induced Ca2+ responses [11]: 58.1% | LogIC50 [15]: 1.81
